Columns and labels:
KOPTK1 cells = experiment: Polysome profiling; assay type: cell-based, human; details: 25 nM, 45 minutes
Method: Polysome profiling. KOPTK1 cells were treated with silvestrol or DMSO for 45 minutes, followed by cycloheximide treatment for 10 minutes. Cell pellet was lysed in polysome lysis buffer (300 mM NaCl, 15 mM Tris-HCl (pH 7.5), 15 mM MgCl2, 1% TritonX-100, 0.1 mg/ml Cycloheximide, 1 mg/ml Heparin). Polysome fractions were isolated using 4 ml 10-50% sucrose density gradients (300 mM NaCl, 100 mM MgCl2, 15 mM Tris-HCl (pH 7.5), 1 mg/ml Cycloheximide, 10 mg/ml Heparin). Gradients were centrifuged in an SW40Ti rotor at 35,000 rpm for 2 hrs. Fractions of 100 ul were collected manually from the top, and optical density (OD) at […] was measured.
FIG. 10 depicts ribosome profiling quality control data and effects on translation. A and B) Read counts by length of mapped sequence before and after filtering rRNA, linker reads, non-coding RNAs, short mapped sequences (“noisy” reads; see text and method for details). C and D) Read length frequency histograms and mapping analysis of ribosome footprint data after quality control filtering for vehicle treated cells (C) or silvestrol treated cells (D). […] F) Histogram of all genes' ribosome footprint intensity (measured as unique read number per million per gene, RPM) for silvestrol and vehicle treated cells indicating silvestrol affected mRNAs were broadly distributed (see text for details). […]

[1] = tested on: neuroblastoma cell lines SKNAS, CLBGA, IMR32 and N206; experiment: Silvestrol IC50 in neuroblastoma cell lines SKNAS, CLBGA, IMR32 and N206; assay type: cell-based
GQ construct = experiment: Luciferase reporter with four 12-mer motifs (GQs) vs random control 5'UTR; assay type: cell-based; details: 25 nM, 24 hours
Method: Luciferase assays. Four tandem repeats of the (CGG)4 12-mer motif (GQs) or random sequence matched for length and GC content (random) were cloned into the 5′UTR of Renilla luciferase plasmid pGL4.73. Empty firefly luciferase plasmid pGL4.13 or HCV-IRES firefly were used as internal controls. Luciferase assays were performed using Dual-Luciferase Reporter Assay System (Promega E1960) following the manufacturer's instructions. GQs sequence:
Next, directly testing the translational effect of the 12-mer sequence motif was sought. Briefly, a luciferase reporter system was constructed to directly compare four 12-mer motifs in tandem reflecting the common occurrence of multiple motifs in sensitive mRNAs (GQ construct) to a random sequence of equal length and GC content (control construct) and using an IRES-driven firefly luciferase as an internal control (FIG. 4E). […] The RNA helicases DHX9 and DHX36 have been implicated in resolving G-quadruplex structures (Booy et al., 2012; Chakraborty and Grosse, 2011), however predominant expression was found of eIF4A in T-ALL (FIG. 4G) (Van Vlierberghe et al., 2011). Further direct testing was done of the effect of RNAi-mediated eIF4A knockdown in the same assay and a striking decrease in the translation from the GQ reporter observed, with little effect on the control sequence (FIG. 4H/I). […]

BE(2)C = experiment: Silvestrol in neuroblastoma cell lines in vitro: BE(2)C; assay type: cell-based; details: Homo sapiens; BE(2)C cells, N-MYC
Method: (§1) The effect of silvestrol on several neuroblastoma cell lines was evaluated.

SKNCM = experiment: Silvestrol in neuroblastoma cell lines in vitro: SKNCM; assay type: cell-based; details: SKNCM cells
Method: as §1

SMILES: COC(=O)[C@H]1[C@@H](O)[C@@]2(O)c3c(OC)cc(O[C@@H]4O[C@@H]([C@H](O)CO)CO[C@H]4OC)cc3O[C@@]2(c2ccc(OC)cc2)[C@@H]1c1ccccc1 [silvestrol]
- polyribosome bound RNA (fractions 30-40) (KOPTK1 cells): loss of polyribosome bound RNA
- IC50 [1]: 2 to 20 nM
- translation of the GQ construct (GQ construct; normalized to IRES firefly): reduced the translation
- translation of the control luciferase (GQ construct; random sequence control construct): did not reduce the translation
- IC50 (BE(2)C): 47.8 nM
- IC50 (SKNCM): 20.2 nM
